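Dose response: 5 concentrations. Exposure: 48 h. Format: 96-well plates. Endpoint: linear interpolation; highest concentration if not reached. The concentration for full growth arrest is given as TGI.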
Key:
Assay in all cases: NCI anticancer screen, dose series, 48 h
786-0 renal = system: 786-0 renal
A549 NSCLC = system: A549 NSCLC
ACHN renal = system: ACHN renal
CAKI-1 renal = system: CAKI-1 renal
CCRF-CEM leukemia = system: CCRF-CEM leukemia
COLO 205 colon = system: COLO 205 colon
DLD-1 colon = system: DLD-1 colon
DMS 114 small cell lung = system: DMS 114 small cell lung
EKVX NSCLC = system: EKVX NSCLC
HCC-2998 colon = system: HCC-2998 colon
HCT-116 colon = system: HCT-116 colon
HCT-15 colon = system: HCT-15 colon
HL-60(TB) leukemia = system: HL-60(TB) leukemia
HOP-18 NSCLC = system: HOP-18 NSCLC
HOP-62 NSCLC = system: HOP-62 NSCLC
HOP-92 NSCLC = system: HOP-92 NSCLC
HT29 colon = system: HT29 colon
IGROV1 ovarian = system: IGROV1 ovarian
K-562 leukemia = system: K-562 leukemia
KM12 colon = system: KM12 colon
KM20L2 colon = system: KM20L2 colon
LOX IMVI melanoma = system: LOX IMVI melanoma
LXFL 529 NSCLC = system: LXFL 529 NSCLC
M19-MEL melanoma = system: M19-MEL melanoma
MALME-3M melanoma = system: MALME-3M melanoma
MOLT-4 leukemia = system: MOLT-4 leukemia
NCI-H226 lung = system: NCI-H226 lung
NCI-H23 lung = system: NCI-H23 lung
NCI-H460 lung = system: NCI-H460 lung
NCI-H522 lung = system: NCI-H522 lung
OVCAR-3 ovarian = system: OVCAR-3 ovarian
OVCAR-4 ovarian = system: OVCAR-4 ovarian
OVCAR-5 ovarian = system: OVCAR-5 ovarian
RPMI-8226 leukemia = system: RPMI-8226 leukemia
RXF 393 renal = system: RXF 393 renal
RXF-631 renal = system: RXF-631 renal
SF-268 CNS = system: SF-268 CNS
SF-295 CNS = system: SF-295 CNS
SF-539 CNS = system: SF-539 CNS
SK-MEL-2 melanoma = system: SK-MEL-2 melanoma
SK-MEL-28 melanoma = system: SK-MEL-28 melanoma
SK-MEL-5 melanoma = system: SK-MEL-5 melanoma
SK-OV-3 ovarian = system: SK-OV-3 ovarian
SN12C renal = system: SN12C renal
SNB-19 CNS = system: SNB-19 CNS
SNB-78 CNS = system: SNB-78 CNS
SR leukemia = system: SR leukemia
SW-620 colon = system: SW-620 colon
TK-10 renal = system: TK-10 renal
U251 CNS = system: U251 CNS
UACC-257 melanoma = system: UACC-257 melanoma
UACC-62 melanoma = system: UACC-62 melanoma
UO-31 renal = system: UO-31 renal
XF 498 CNS = system: XF 498 CNS
A498 renal = system: A498 renal
DMS 273 small cell lung = system: DMS 273 small cell lung
M14 melanoma = system: M14 melanoma
SNB-75 CNS = system: SNB-75 CNS
OVCAR-8 ovarian = system: OVCAR-8 ovarian

Compound: COc1cc2c(c(OC)c1OC)-c1ccc(SC)c(=O)cc1C(CC(=O)Oc1cccc(F)c1)C2 (stereo not drawn)
- TGI (786-0 renal): > 100 µM
- TGI (A549 NSCLC): > 100 µM
- TGI (ACHN renal): > 100 µM
- TGI (CAKI-1 renal): > 73.7 µM
- TGI (CCRF-CEM leukemia): > 31.9 µM
- TGI (COLO 205 colon): 0.555 µM
- TGI (DLD-1 colon): > 100 µM
- TGI (DMS 114 small cell lung): 1.07 µM
- TGI (EKVX NSCLC): > 100 µM
- TGI (HCC-2998 colon): 0.426 µM
- TGI (HCT-116 colon): 1.06 µM
- TGI (HCT-15 colon): 1.97 µM
- TGI (HL-60(TB) leukemia): 0.6 µM
- TGI (HOP-18 NSCLC): > 100 µM
- TGI (HOP-62 NSCLC): > 100 µM
- TGI (HOP-92 NSCLC): > 81.3 µM
- TGI (HT29 colon): 0.557 µM
- TGI (IGROV1 ovarian): > 100 µM
- TGI (K-562 leukemia): > 52.4 µM
- TGI (KM12 colon): 1.14 µM
- TGI (KM20L2 colon): 0.225 µM
- TGI (LOX IMVI melanoma): 10.8 µM
- TGI (LXFL 529 NSCLC): > 40.8 µM
- TGI (M19-MEL melanoma): 16.2 µM
- TGI (MALME-3M melanoma): > 100 µM
- TGI (MOLT-4 leukemia): > 55.2 µM
- TGI (NCI-H226 lung): 0.794 µM
- TGI (NCI-H23 lung): 0.805 µM
- TGI (NCI-H460 lung): 4.62 µM
- TGI (NCI-H522 lung): 0.241 µM
- TGI (OVCAR-3 ovarian): 0.305 µM
- TGI (OVCAR-4 ovarian): > 100 µM
- TGI (OVCAR-5 ovarian): > 100 µM
- TGI (RPMI-8226 leukemia): 6.19 µM
- TGI (RXF 393 renal): > 100 µM
- TGI (RXF-631 renal): 20.7 µM
- TGI (SF-268 CNS): > 72.5 µM
- TGI (SF-295 CNS): > 100 µM
- TGI (SF-539 CNS): 0.387 µM
- TGI (SK-MEL-2 melanoma): 9.57 µM
- TGI (SK-MEL-28 melanoma): > 100 µM
- TGI (SK-MEL-5 melanoma): > 55.8 µM
- TGI (SK-OV-3 ovarian): 16.1 µM
- TGI (SN12C renal): 16.6 µM
- TGI (SNB-19 CNS): > 100 µM
- TGI (SNB-78 CNS): > 100 µM
- TGI (SR leukemia): 1.47 µM
- TGI (SW-620 colon): > 100 µM
- TGI (TK-10 renal): > 100 µM
- TGI (U251 CNS): 0.85 µM
- TGI (UACC-257 melanoma): > 100 µM
- TGI (UACC-62 melanoma): 1.07 µM
- TGI (UO-31 renal): > 100 µM
- TGI (XF 498 CNS): 36.8 µM

Compound: CN1CCCN2CCN(C)CCCN(CC1)CC2
- TGI (786-0 renal): > 100 µM
- TGI (A498 renal): > 100 µM
- TGI (CAKI-1 renal): > 100 µM
- TGI (CCRF-CEM leukemia): > 100 µM
- TGI (COLO 205 colon): > 100 µM
- TGI (DLD-1 colon): > 100 µM
- TGI (DMS 114 small cell lung): > 100 µM
- TGI (DMS 273 small cell lung): > 100 µM
- TGI (HCC-2998 colon): > 100 µM
- TGI (HCT-116 colon): > 100 µM
- TGI (HL-60(TB) leukemia): > 100 µM
- TGI (HOP-62 NSCLC): > 100 µM
- TGI (HOP-92 NSCLC): > 100 µM
- TGI (IGROV1 ovarian): > 100 µM
- TGI (K-562 leukemia): > 100 µM
- TGI (LOX IMVI melanoma): > 100 µM
- TGI (LXFL 529 NSCLC): > 100 µM
- TGI (M14 melanoma): > 100 µM
- TGI (M19-MEL melanoma): > 100 µM
- TGI (MALME-3M melanoma): > 100 µM
- TGI (MOLT-4 leukemia): > 100 µM
- TGI (NCI-H226 lung): > 100 µM
- TGI (NCI-H23 lung): > 100 µM
- TGI (NCI-H460 lung): > 100 µM
- TGI (NCI-H522 lung): > 100 µM
- TGI (OVCAR-4 ovarian): > 100 µM
- TGI (RPMI-8226 leukemia): > 100 µM
- TGI (RXF-631 renal): > 100 µM
- TGI (SF-268 CNS): > 100 µM
- TGI (SF-539 CNS): > 100 µM
- TGI (SK-MEL-2 melanoma): > 100 µM
- TGI (SK-MEL-28 melanoma): > 100 µM
- TGI (SK-OV-3 ovarian): > 100 µM
- TGI (SN12C renal): > 100 µM
- TGI (SNB-75 CNS): > 100 µM
- TGI (SNB-78 CNS): > 100 µM
- TGI (SR leukemia): > 100 µM
- TGI (UACC-62 melanoma): > 100 µM
- TGI (UO-31 renal): > 100 µM
- TGI (XF 498 CNS): > 100 µM

Compound: COc1cccc2nc3c(C(=O)NCCN(C)C)cccc3nc12
- TGI (786-0 renal): > 84.6 µM
- TGI (A498 renal): 27.3 µM
- TGI (A549 NSCLC): > 100 µM
- TGI (ACHN renal): > 100 µM
- TGI (CAKI-1 renal): > 100 µM
- TGI (CCRF-CEM leukemia): 25.7 µM
- TGI (COLO 205 colon): 28.8 µM
- TGI (DLD-1 colon): > 83.6 µM
- TGI (DMS 114 small cell lung): 21 µM
- TGI (DMS 273 small cell lung): > 100 µM
- TGI (EKVX NSCLC): 40.5 µM
- TGI (HCC-2998 colon): 36.3 µM
- TGI (HCT-116 colon): 37 µM
- TGI (HCT-15 colon): 80.1 µM
- TGI (HL-60(TB) leukemia): 17.5 µM
- TGI (HOP-18 NSCLC): > 79.4 µM
- TGI (HOP-62 NSCLC): 38.2 µM
- TGI (HOP-92 NSCLC): 28.8 µM
- TGI (HT29 colon): 32 µM
- TGI (IGROV1 ovarian): > 72.9 µM
- TGI (K-562 leukemia): 25.2 µM
- TGI (KM12 colon): 36.9 µM
- TGI (KM20L2 colon): 36.8 µM
- TGI (LOX IMVI melanoma): 14.1 µM
- TGI (LXFL 529 NSCLC): 42.4 µM
- TGI (M14 melanoma): 36.3 µM
- TGI (M19-MEL melanoma): 22 µM
- TGI (MALME-3M melanoma): 21.9 µM
- TGI (MOLT-4 leukemia): 15.1 µM
- TGI (NCI-H226 lung): 20.2 µM
- TGI (NCI-H23 lung): 27.2 µM
- TGI (NCI-H460 lung): 21 µM
- TGI (NCI-H522 lung): > 44.1 µM
- TGI (OVCAR-3 ovarian): 73.9 µM
- TGI (OVCAR-4 ovarian): 26.7 µM
- TGI (OVCAR-5 ovarian): 42.4 µM
- TGI (OVCAR-8 ovarian): > 88 µM
- TGI (RPMI-8226 leukemia): > 63.8 µM
- TGI (RXF 393 renal): 26.7 µM
- TGI (RXF-631 renal): > 67.2 µM
- TGI (SF-268 CNS): 1.84 µM
- TGI (SF-295 CNS): 36.8 µM
- TGI (SF-539 CNS): 17.1 µM
- TGI (SK-MEL-2 melanoma): 22.7 µM
- TGI (SK-MEL-28 melanoma): 28.8 µM
- TGI (SK-MEL-5 melanoma): 36.8 µM
- TGI (SK-OV-3 ovarian): > 46.4 µM
- TGI (SN12C renal): > 72.3 µM
- TGI (SNB-19 CNS): > 91.8 µM
- TGI (SNB-75 CNS): > 47.9 µM
- TGI (SNB-78 CNS): 69.8 µM
- TGI (SR leukemia): > 37.9 µM
- TGI (SW-620 colon): > 57.7 µM
- TGI (TK-10 renal): 61 µM
- TGI (U251 CNS): 59.1 µM
- TGI (UACC-257 melanoma): 27.1 µM
- TGI (UACC-62 melanoma): 27 µM
- TGI (UO-31 renal): 66.8 µM
- TGI (XF 498 CNS): 29.1 µM
